Columns and labels:
[1] = Weight management in mice, colitis-related disease state (cell transfer insult); type: in vivo, mouse; settings: for % Original Wt: Diseased + QBA 60 mg/kg body weight/day
Method: Mice (45 days of age) were fed 60 mg/kg body weight/day QBA (equivalent to 24 mg/kg/d in rats; HED of ˜240 mg/day, N=10) or a control diet (N=15) for 28 days. […] After 28 days, all 10 of the mice fed QBA and 10 of the 15 control mice were subjected to a cell transfer insult wherein the mice were considered to be in a colitis-related disease state. The undiseased controls (N=5) and the diseased controls (N=10) continued on their control diets, and the diseased QBA-fed animals continued on their QBA diets (60 mg/kg body weight/day QBA), for an additional 49 days.

[2] = test system: histone deacetylases; settings: Spannhoff et al. 2011; cited from earlier work
[3] = test system: Neurons from the brain's hippocampus; test: In vitro neurite extension (Map2a staining per neuron); type: cell-based, rat; settings: for % Map2a Staining/Neuron: 7 days incubation
Method: Neurons from the brain's hippocampus were derived from embryonic day (E17) rat pups and incubated with QBA for 7 days. The cultures were then stained with neuron-specific marker, microtubule associated protein-2a (Map2a) and cell nuclei were stained with 4′,6-diamidino-2-phenylindole (DAPI). Fluorescent images of the staining were then captured with a confocal microscope. The staining was quantitated by dividing the percent area of the Map2a staining by the number of neurons.

[4] = test system: RAW264.7 mouse macrophage cell line; test: IL-1β levels after LPS stimulation; type: cell-based; settings: for IL-1β (pg/mL)/Cell Numbers: 24 h
Method: Cultures of the RAW264.7 mouse macrophage cell line were pre-treated with 10-Hydroxy-2-decenoic acid (QBA) for 1 hour prior to stimulation with lipopolysaccharide (LPS, 100 ng/mL). After 24 hours of incubation, interleukin […] (IL-1β) and tumor necrosis factor-α (TNFα) levels were determined by Luminex technology and cell numbers were measured using Alamar Blue. Results are given as a ratio of cytokine concentration/cell number.

[5] = test system: Young adult female Long-Evans rats; test: Conception index of female rats with abnormal ovulatory cycles; type: in vivo, rat; settings: for Conception Index (%): eight weeks, then mated
Method: Young adult female Long-Evans rats (3 months-old) with abnormal ovulatory cycles were fed diets containing 10-Hydroxy-2-decenoic acid (QBA) or no QBA for eight (8) weeks and then mated with a male rat. Female rats having normal ovulatory cycles were used as positive controls and were not fed QBA. The conception index was determined. The conception index is a measure of conception efficiency and is equal to the number of pregnancies divided by the number of discernable mating sessions multiplied by 100.

[6] = test system: older rats; test: Open field test, older rats fed QBA; type: in vivo, rat; settings: for Center Entries (#): rats 15 months old, thirty minutes
Method: The dose-response characteristics of 10-Hydroxy-2-decenoic acid's (QBA's) potential brain health benefits during aging were assessed for mood in older rats (18-20 months old).
In the open field test each rat was placed in a novel environment consisting of an arena measuring 100×100×40 cm. Rats were placed in the middle of the chamber and behavior in the open field was recorded for thirty minutes with a digital camera and measured by software. More time spent in the center of the area is an indication of a reduced anxiety-like state. Rats were tested at 15 months old (N=11-12 per group).

[7] = test system: Adult female Long-Evans rats; test: Ovulatory cycle status of female rats with abnormal ovulatory cycles; type: in vivo, rat; settings: six weeks, count of animals
Text: Adult female Long-Evans rats (3 months-old) with abnormal ovulatory cycles were fed diets containing 10-Hydroxy-2-decenoic acid (QBA) or no QBA for six (6) weeks. Female rats having normal ovulatory cycle were used as positive controls and were not fed QBA.

## O=C(O)C=CCCCCCCCO [QBA, 10-Hydroxy-2-decenoic acid]
[1]; day 0
  % Original Wt: 0.00%
[1]; day 3
  % Original Wt: 1.93%
[1]; day 7
  % Original Wt: 5.33%
[1]; day 10
  % Original Wt: 9.91%
[1]; day 14
  % Original Wt: 9.09%
[1]; day 17
  % Original Wt: 9.10%
[1]; day 21
  % Original Wt: 12.60%
[1]; day 24
  % Original Wt: 15.47%
[1]; day 28* (cell transfer insult after 28 days)
  % Original Wt: 16.19%
[1]; day 31
  % Original Wt: 18.82%
[1]; day 35
  % Original Wt: 20.65%
[1]; day 38
  % Original Wt: 19.66%
[1]; day 42
  % Original Wt: 21.27%
[1]; day 45
  % Original Wt: 22.86%
[1]; day 49
  % Original Wt: 24.04%
[1]; day 52
  % Original Wt: 24.05%
[1]; day 56
  % Original Wt: 22.29%
[1]; day 59
  % Original Wt: 21.83%
[1]; day 63
  % Original Wt: 23.89%
[1]; day 66
  % Original Wt: 22.42%
[1]; day 70
  % Original Wt: 22.95%
[1]; day 73
  % Original Wt: 21.96%
[1]; day 77
  % Original Wt: 20.56%
[1]; QBA 60 mg/kg body weight/day, colitis-related disease state
  weight of mice in a diseased state versus undiseased controls: maintained their weight similar to the undiseased control mice
[1]; QBA 60 mg/kg body weight/day, first 28 days, before insult
  percentage increase in body weight versus control diet: greater percentage increase in body weight
[2]
  histone deacetylase inhibition: inhibits histone deacetylases
[3]; QBA 0.10 μM
  % Map2a Staining/Neuron: 0.29%
[3]; QBA 0.30 μM
  % Map2a Staining/Neuron: 0.32%
[3]; QBA 1.00 μM
  % Map2a Staining/Neuron: 0.30%
[3]; QBA 3.00 μM
  % Map2a Staining/Neuron: 0.31%
[3]; QBA 10.00 μM
  % Map2a Staining/Neuron: 0.32%
[3]; QBA 30.00 μM
  % Map2a Staining/Neuron: 0.32%
[3]; QBA 100.00 μM
  % Map2a Staining/Neuron: 0.27%
[3]; summary of Table 1
  growth of brain cells in culture: increased the growth of brain cells in culture
[4]; QBA 50 μM 1 h before LPS 100 ng/mL
  IL-1β (pg/mL)/Cell Numbers: 0.00386 (pg/mL)/Cell Numbers
[4]; QBA 100 μM 1 h before LPS 100 ng/mL
  IL-1β (pg/mL)/Cell Numbers: 0.00402 (pg/mL)/Cell Numbers
[4]; QBA 500 μM 1 h before LPS 100 ng/mL
  IL-1β (pg/mL)/Cell Numbers: 0.00242 (pg/mL)/Cell Numbers
[4]; QBA 1000 μM 1 h before LPS 100 ng/mL
  IL-1β (pg/mL)/Cell Numbers: 0.00242 (pg/mL)/Cell Numbers
[4]; QBA 2500 μM 1 h before LPS 100 ng/mL
  IL-1β (pg/mL)/Cell Numbers: 0.00097 (pg/mL)/Cell Numbers
[4]; QBA 5000 μM 1 h before LPS 100 ng/mL
  IL-1β (pg/mL)/Cell Numbers: 0.00067 (pg/mL)/Cell Numbers
[4]; summary of Table 9
  production of IL-1β in immune cells: reduced the production
[5]; QBA 0.4 mg/kg/day
  Conception Index (%): 112.5%
[5]; QBA 4 mg/kg/day
  Conception Index (%): 107.7%
[5]; QBA 12 mg/kg/day
  Conception Index (%): 225.0%
[5]; QBA 24 mg/kg/day
  Conception Index (%): 200.0%
[5]; summary of Table 17
  conception index: increased the conception index
[6]; QBA 0.4 mg/kg/day
  Center Entries (#): 1.82 #
[6]; QBA 4 mg/kg/day
  Center Entries (#): 2.50 #
[6]; QBA 12 mg/kg/day
  Center Entries (#): 1.82 #
[6]; QBA 24 mg/kg/d, 15-18-month old male rats
  anxiety as measured by the number of center entries in the open field arena: decreased anxiety
[6]; QBA 24 mg/kg/day
  Center Entries (#): 3.75 #
[7]; QBA 0.4 mg/kg/day
  Ovulatory Cycle Status Abnormal: 7
  Ovulatory Cycle Status Normal: 8
[7]; QBA 4 mg/kg/day
  Ovulatory Cycle Status Abnormal: 9
  Ovulatory Cycle Status Normal: 6
[7]; QBA 12 mg/kg/day
  Ovulatory Cycle Status Abnormal: 4
  Ovulatory Cycle Status Normal: 11
[7]; QBA 24 mg/kg/day
  Ovulatory Cycle Status Abnormal: 12
  Ovulatory Cycle Status Normal: 3
